Results as given in PubChem BioAssay (NCI).
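Protocol summary: plate cells (96-well), add compound at 5 concentrations, incubate 48 h, interpolate endpoints linearly. TGI denotes the concentration required for complete inhibition of growth.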

Experiments:
Assay in all cases: NCI tumour cell line growth inhibition, 48 h
OVCAR-5 ovarian = system: OVCAR-5 ovarian
LOX IMVI melanoma = system: LOX IMVI melanoma
SNB-19 CNS = system: SNB-19 CNS
DU-145 prostate = system: DU-145 prostate
NCI-H522 lung = system: NCI-H522 lung
EKVX NSCLC = system: EKVX NSCLC
RXF 393 renal = system: RXF 393 renal
UACC-62 melanoma = system: UACC-62 melanoma
SNB-75 CNS = system: SNB-75 CNS
MDA-N = system: MDA-N
T-47D breast = system: T-47D breast

SMILES | TGI (OVCAR-5 ovarian) | TGI (LOX IMVI melanoma) | TGI (SNB-19 CNS) | TGI (DU-145 prostate) | TGI (NCI-H522 lung) | TGI (EKVX NSCLC) | TGI (RXF 393 renal) | TGI (UACC-62 melanoma) | TGI (SNB-75 CNS) | TGI (MDA-N) | TGI (T-47D breast)
C[n+]1cc2cc(O)c(O)cc2c2ccc3cc(O)c(O)cc3c21 | > 100 µM | 18.3 µM | 16.5 µM | > 100 µM | 3.43 µM | > 100 µM | 9.34 µM | 5.34 µM | 59.3 µM | > 100 µM | > 100 µM
CCOC1C=CC(=O)C(CO)O1 (stereo not drawn) | 35.2 µM | 17.8 µM | 42.9 µM | 31.2 µM | 3.52 µM | 33.3 µM | 24.2 µM | 25.9 µM | 33.5 µM | 31.5 µM | 24.9 µM
CC(C)Oc1cccc(N2C(n3ccnc3)=Nc3ccncc3S2(=O)=O)c1 | 27.6 µM | 31.9 µM | 36 µM | 25 µM | 22 µM | 30.4 µM | 28.9 µM | 29.2 µM | 33.3 µM | 25.4 µM | 41.5 µM
O=C(NCc1ccccc1)c1cc2ccccc2oc1=Nc1cccc(C(F)(F)F)c1 | > 100 µM | > 100 µM | > 100 µM | > 100 µM | > 100 µM | > 100 µM | > 100 µM | > 100 µM | > 100 µM | > 100 µM | > 100 µM
O=c1oc2ccc3ccccc3c2cc1-c1cn2ccsc2n1 | 66.6 µM | 31.7 µM | > 100 µM | 47.3 µM | 36.8 µM | 54.5 µM | 37.4 µM | 34.2 µM | > 100 µM | 46.3 µM | 57.6 µM
O=C(ON=C1c2ccccc2C(Br)C(Br)c2ccccc21)c1ccccc1 (stereo not drawn) | 35.6 µM | 9.12 µM | 62.1 µM | 31.8 µM | 3.85 µM | 46.6 µM | 28.4 µM | 32.7 µM | > 65.9 µM | 34.5 µM | 29.3 µM
CN(O)C(=O)/C=C/c1ccc(OCc2cccc(Cl)c2)cc1 | > 100 µM | 30.5 µM | > 100 µM | 54.8 µM | > 100 µM | > 100 µM | > 100 µM | 31.3 µM | > 100 µM | > 100 µM | 66.5 µM
CC1=CC2C3(C)C(C)(C(C)=CP3(=O)c3c(C(C)C)cc(C(C)C)cc3C(C)C)C1P2(=O)c1c(C(C)C)cc(C(C)C)cc1C(C)C (stereo not drawn) | 6.31 µM | 3.26 µM | 15.8 µM | 14.2 µM | 8.64 µM | 9.83 µM | 15.8 µM | 2.92 µM | 12.1 µM | 5.62 µM | 10.9 µM
COc1ccc2ccc3oc(=O)c(C)cc3c2c1 | > 100 µM | > 100 µM | > 100 µM | > 100 µM | > 100 µM | > 100 µM | > 100 µM | > 100 µM | > 100 µM | > 100 µM | > 100 µM
CN(C)CCN(c1ccccn1)c1ccccn1 | > 100 µM | > 100 µM | > 100 µM | > 100 µM | > 100 µM | > 100 µM | > 100 µM | > 100 µM | > 100 µM | > 100 µM | > 100 µM
NC1=CC(=O)c2c(O)ccc(O)c2C1=O | 35.3 µM | 33.1 µM | > 65.9 µM | 32.1 µM | 18 µM | 36.2 µM | 22.1 µM | 26.5 µM | 83.3 µM | 13.1 µM | 35.7 µM
O=CC(I)=C(c1ccccc1)c1ccccc1 | 40.7 µM | 28.6 µM | 30.1 µM | 32.7 µM | 32.3 µM | 36 µM | 41.4 µM | 34.5 µM | > 52.7 µM | 35.4 µM | 34.9 µM
COc1ccc(N=Nc2c(-c3c(OC)cc4occc4c3OC)[nH]c(=O)c(C#N)c2C)cc1 | > 100 µM | > 100 µM | > 100 µM | > 100 µM | > 100 µM | > 100 µM | > 100 µM | > 100 µM | > 100 µM | > 100 µM | > 100 µM
